Source: the supplement of paper PMC9663587

Columns and labels:
[1] = compound: CCN1CCN(Cc2ccc(Nc3ncc(F)c(-c4cc(F)c5nc(C)n(C(C)C)c5c4)n3)nc2)CC1; assay: increase in dead-cell fraction, 72 h; higher = more death;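 also: breast cancer cell lines in 384-well plates, stained with Hoechst plus LIVE/DEAD far red dye and imaged, cells above an LDR intensity threshold counted dead, Hoechst-negative corpses included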
[2] = compound: CCc1cnn2c(NCc3ccc[n+]([O-])c3)cc(N3CCCC[C@H]3CCO)nc12; assay: as above
THZ1 [3] = compound: T1, CN(C)C/C=C/C(=O)Nc1ccc(C(=O)Nc2cccc(Nc3ncc(Cl)c(-c4c[nH]c5ccccc45)n3)c2)cc1 [THZ1]; assay: as above
YKL-5-124 = compound: C=CC(=O)Nc1ccc(C(=O)Nc2[nH]nc3c2CN(C(=O)N[C@H](CN(C)C)c2ccccc2)C3(C)C)cc1 [YKL-5-124]; assay: as above
Neratinib/HKI272 [4] = compound: T2, CCOc1cc2ncc(C#N)c(Nc3ccc(OCc4ccccn4)c(Cl)c3)c2cc1NC(=O)/C=C/CN(C)C [Neratinib/HKI272]; assay: as above
Flavopiridol = compound: CN1CC[C@H](c2c(O)cc(O)c3c(=O)cc(-c4ccccc4Cl)oc23)[C@H](O)C1 [Flavopiridol]; assay: as above
[5] = compound: CC(=O)c1c(C)c2cnc(Nc3ccc(N4CCNCC4)cn3)nc2n(C2CCCC2)c1=O; assay: as above
LEE011/Ribociclib = compound: CN(C)C(=O)c1cc2cnc(Nc3ccc(N4CCNCC4)cn3)nc2n1C1CCCC1 [LEE011/Ribociclib]; assay: as above
BSJ-03-123 = compound: CC(=O)c1c(C)c2cnc(Nc3ccc(N4CCN(CCOCCOCCOCCNC(=O)COc5cccc6c5C(=O)N(C5CCC(=O)NC5=O)C6=O)CC4)cn3)nc2n(C2CCCC2)c1=O [BSJ-03-123]; assay: as above
THZ531 = compound: CN(C)C/C=C/C(=O)Nc1ccc(C(=O)N2CCC[C@@H](Nc3ncc(Cl)c(-c4c[nH]c5ccccc45)n3)C2)cc1 [THZ531]; assay: as above
THZ1 [6] = compound: T1, THZ1; assay: GR value, 72 h; higher = faster growth (1 = untreated, <0 = killing);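 also: breast cancer and non-malignant breast epithelial lines, nine half-log doses, viable cells counted by Hoechst and LIVE/DEAD dye imaging versus time-zero plates and DMSO controls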
Neratinib/HKI272 [7] = compound: T2, Neratinib/HKI272; assay: as above

## SUM44PE
[1]; 0.001 µM
  increase in dead-cell fraction: 0.0036
[1]; 0.003162 µM
  increase in dead-cell fraction: -0.0095
[1]; 0.01 µM
  increase in dead-cell fraction: 0.0221
[1]; 0.03162 µM
  increase in dead-cell fraction: 0.0221
[1]; 0.1 µM
  increase in dead-cell fraction: -0.017
[1]; 0.3162 µM
  increase in dead-cell fraction: 0.0843
[1]; 1 µM
  increase in dead-cell fraction: 0.0751
[1]; 3.162 µM
  increase in dead-cell fraction: 0.0328
[1]; 10 µM
  increase in dead-cell fraction: 0.697
[2]; 0.0001 µM
  increase in dead-cell fraction: 0.0041
[2]; 0.0003162 µM
  increase in dead-cell fraction: -0.0148
[2]; 0.001 µM
  increase in dead-cell fraction: 0.0007
[2]; 0.003162 µM
  increase in dead-cell fraction: -0.0141
[2]; 0.01 µM
  increase in dead-cell fraction: 0.102
[2]; 0.03162 µM
  increase in dead-cell fraction: 0.894
THZ1 [3]; 0.0001 µM
  increase in dead-cell fraction: 0.0181
THZ1 [3]; 0.0003162 µM
  increase in dead-cell fraction: -0.0186
THZ1 [3]; 0.001 µM
  increase in dead-cell fraction: 0.0262
THZ1 [3]; 0.003162 µM
  increase in dead-cell fraction: -0.0493
THZ1 [3]; 0.01 µM
  increase in dead-cell fraction: 0.0625
THZ1 [3]; 1 µM
  increase in dead-cell fraction: 0.0767
YKL-5-124; 0.001 µM
  increase in dead-cell fraction: 0.376
YKL-5-124; 0.003162 µM
  increase in dead-cell fraction: 0.0121
YKL-5-124; 0.01 µM
  increase in dead-cell fraction: 0.0391
YKL-5-124; 0.03162 µM
  increase in dead-cell fraction: 0.053
YKL-5-124; 0.1 µM
  increase in dead-cell fraction: 0.0951
YKL-5-124; 0.3162 µM
  increase in dead-cell fraction: 0.0965
YKL-5-124; 1 µM
  increase in dead-cell fraction: 0.127
YKL-5-124; 3.162 µM
  increase in dead-cell fraction: 0.447
Neratinib/HKI272 [4]; 0.0003162 µM
  increase in dead-cell fraction: -0.0158
Neratinib/HKI272 [4]; 0.001 µM
  increase in dead-cell fraction: -0.0227
Neratinib/HKI272 [4]; 0.003162 µM
  increase in dead-cell fraction: -0.0156
Neratinib/HKI272 [4]; 0.01 µM
  increase in dead-cell fraction: 0.029
Neratinib/HKI272 [4]; 0.03162 µM
  increase in dead-cell fraction: 0.0991
Neratinib/HKI272 [4]; 0.1 µM
  increase in dead-cell fraction: 0.118
Neratinib/HKI272 [4]; 0.3162 µM
  increase in dead-cell fraction: 0.137
Neratinib/HKI272 [4]; 1 µM
  increase in dead-cell fraction: 0.22
Neratinib/HKI272 [4]; 3.162 µM
  increase in dead-cell fraction: 0.358
Flavopiridol; 0.0001 µM
  increase in dead-cell fraction: -0.0156
Flavopiridol; 0.0003162 µM
  increase in dead-cell fraction: -0.0093
Flavopiridol; 0.001 µM
  increase in dead-cell fraction: -0.0478
Flavopiridol; 0.003162 µM
  increase in dead-cell fraction: -0.0522
Flavopiridol; 0.01 µM
  increase in dead-cell fraction: 0.0491
Flavopiridol; 0.03162 µM
  increase in dead-cell fraction: 0.0151
Flavopiridol; 0.1 µM
  increase in dead-cell fraction: 0.263
Flavopiridol; 0.3162 µM
  increase in dead-cell fraction: 0.457
[5]; 0.0003162 µM
  increase in dead-cell fraction: -0.0301
[5]; 0.001 µM
  increase in dead-cell fraction: 0.0185
[5]; 0.003162 µM
  increase in dead-cell fraction: 0.0057
[5]; 0.01 µM
  increase in dead-cell fraction: -0.0159
[5]; 0.03162 µM
  increase in dead-cell fraction: 0.0328
[5]; 0.1 µM
  increase in dead-cell fraction: 0.0351
[5]; 0.3162 µM
  increase in dead-cell fraction: 0.0647
[5]; 1 µM
  increase in dead-cell fraction: -0.0062
[5]; 3.162 µM
  increase in dead-cell fraction: 0.0016
LEE011/Ribociclib; 0.001 µM
  increase in dead-cell fraction: 0.0007
LEE011/Ribociclib; 0.003162 µM
  increase in dead-cell fraction: -0.0447
LEE011/Ribociclib; 0.01 µM
  increase in dead-cell fraction: 0.0327
LEE011/Ribociclib; 0.03162 µM
  increase in dead-cell fraction: -0.0402
LEE011/Ribociclib; 0.1 µM
  increase in dead-cell fraction: 0.0001
LEE011/Ribociclib; 0.3162 µM
  increase in dead-cell fraction: -0.0342
LEE011/Ribociclib; 1 µM
  increase in dead-cell fraction: 0.0417
LEE011/Ribociclib; 3.162 µM
  increase in dead-cell fraction: -0.0186
LEE011/Ribociclib; 10 µM
  increase in dead-cell fraction: -0.0286
BSJ-03-123; 0.001 µM
  increase in dead-cell fraction: 0.0021
BSJ-03-123; 0.003162 µM
  increase in dead-cell fraction: 0.0071
BSJ-03-123; 0.01 µM
  increase in dead-cell fraction: 0.0014
BSJ-03-123; 0.03162 µM
  increase in dead-cell fraction: 0.0121
BSJ-03-123; 0.1 µM
  increase in dead-cell fraction: 0.0265
BSJ-03-123; 0.3162 µM
  increase in dead-cell fraction: 0.0126
BSJ-03-123; 1 µM
  increase in dead-cell fraction: 0.0666
BSJ-03-123; 3.162 µM
  increase in dead-cell fraction: 0.115
THZ531; 0.0001 µM
  increase in dead-cell fraction: -0.0163
THZ531; 0.0003162 µM
  increase in dead-cell fraction: -0.0027
THZ531; 0.001 µM
  increase in dead-cell fraction: 0.0202
THZ531; 0.003162 µM
  increase in dead-cell fraction: -0.008
THZ531; 0.01 µM
  increase in dead-cell fraction: -0.0392
THZ531; 0.03162 µM
  increase in dead-cell fraction: -0.0411
THZ531; 0.1 µM
  increase in dead-cell fraction: 0.0916
THZ1 [6]; 0.0001 µM
  GR value: 1.02 GR
THZ1 [6]; 0.0003162 µM
  GR value: 0.977 GR
THZ1 [6]; 0.001 µM
  GR value: 0.784 GR
THZ1 [6]; 0.003162 µM
  GR value: 0.888 GR
THZ1 [6]; 0.01 µM
  GR value: -0.229 GR
THZ1 [6]; 1 µM
  GR value: -0.0313 GR
Neratinib/HKI272 [7]; 0.0003162 µM
  GR value: 0.966 GR
Neratinib/HKI272 [7]; 0.001 µM
  GR value: 0.921 GR
Neratinib/HKI272 [7]; 0.003162 µM
  GR value: 0.764 GR
Neratinib/HKI272 [7]; 0.01 µM
  GR value: 0.465 GR
Neratinib/HKI272 [7]; 0.03162 µM
  GR value: 0.417 GR
Neratinib/HKI272 [7]; 0.1 µM
  GR value: 0.312 GR
Neratinib/HKI272 [7]; 0.3162 µM
  GR value: 0.209 GR
Neratinib/HKI272 [7]; 1 µM
  GR value: 0.0292 GR
Neratinib/HKI272 [7]; 3.162 µM
  GR value: -0.218 GR
